Key:
Settings in all cases: exposure time: 72 h
[1] = tested on: E57 (patient-derived glioblastoma stem cells of mesenchymal subtype); test: phenotypic distance (Euclidean, principal components) from DMSO controls (arbitrary units); higher = stronger morphological change
[2] = tested on: FT3469 (normal neural stem cell line); test: as above
[3] = tested on: E13 (patient-derived glioblastoma stem cells of classical subtype); test: as above
[4] = tested on: E28 (patient-derived glioblastoma stem cells of classical subtype); test: as above
[5] = tested on: E31 (patient-derived glioblastoma stem cells of proneural subtype); test: as above
[6] = tested on: E34 (patient-derived glioblastoma stem cells of proneural subtype); test: as above
[7] = tested on: E21 (patient-derived glioblastoma stem cells of mesenchymal subtype); test: as above
[8] = tested on: E57; test: surviving fraction (nuclei count normalised to DMSO); higher = more cells surviving (less toxic)
[9] = tested on: FT3469; test: as above
[10] = tested on: E13; test: as above
[11] = tested on: E28; test: as above
[12] = tested on: E31; test: as above
[13] = tested on: E34; test: as above
[14] = tested on: E21; test: as above
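Throughout, for phenotypic distance (Euclidean, principal components) from DMSO controls: cell Painting imaging in 384-well plates, CellProfiler features reduced to at least 20 principal components, Euclidean distance versus same-plate DMSO vehicle wells (0.1% v/v), median over six images per well.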
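Throughout, for surviving fraction (nuclei count normalised to DMSO): nuclei counted by high-content imaging of Hoechst-stained cells in laminin-coated 384-well plates, relative to 0.1% DMSO vehicle wells, with staurosporine as cell-death control.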

COc1cc([C@@H]2c3cc4c(cc3[C@@H](O[C@@H]3O[C@@H]5CO[C@@H](C)O[C@H]5[C@H](O)[C@H]3O)[C@H]3COC(=O)[C@H]23)OCO4)cc(OC)c1O [Etoposide]
Settings | phenotypic distance | surviving fraction
[1], 4.11523 nM | 0.758 | –
[1], 12.34567901 nM | 0.794 | –
[1], 37.037 nM | 0.549 | –
[1], 111.1111111 nM | 1.24 | –
[1], 333.333 nM | 4.25 | –
[1], 1000 nM | 6.83 | –
[1], 3000 nM | 7.52 | –
[2], 4.11523 nM | 0.576 | –
[2], 12.34567901 nM | 0.799 | –
[2], 37.037 nM | 3.73 | –
[2], 111.1111111 nM | 1.07 | –
[2], 333.333 nM | 1.54 | –
[2], 1000 nM | 2.2 | –
[2], 3000 nM | 1.92 | –
[3], 4.11523 nM | 1.04 | –
[3], 12.34567901 nM | 0.799 | –
[3], 37.037 nM | 0.736 | –
[3], 111.1111111 nM | 0.704 | –
[3], 333.333 nM | 2.88 | –
[3], 1000 nM | 4.56 | –
[3], 3000 nM | 5.77 | –
[4], 4.11523 nM | 0.783 | –
[4], 12.34567901 nM | 1.11 | –
[4], 37.037 nM | 1.44 | –
[4], 111.1111111 nM | 1.78 | –
[4], 333.333 nM | 2.64 | –
[4], 1000 nM | 2.9 | –
[4], 3000 nM | 2.64 | –
[5], 4.11523 nM | 0.939 | –
[5], 12.34567901 nM | 0.828 | –
[5], 37.037 nM | 1.58 | –
[5], 111.1111111 nM | 3.2 | –
[5], 333.333 nM | 4.03 | –
[5], 1000 nM | 2 | –
[5], 3000 nM | 2.86 | –
[6], 4.11523 nM | 0.877 | –
[6], 12.34567901 nM | 0.742 | –
[6], 37.037 nM | 0.789 | –
[6], 111.1111111 nM | 1.03 | –
[6], 333.333 nM | 2.75 | –
[6], 1000 nM | 3.46 | –
[6], 3000 nM | 4.17 | –
[7], 4.11523 nM | 0.716 | –
[7], 12.34567901 nM | 0.855 | –
[7], 37.037 nM | 0.967 | –
[7], 111.1111111 nM | 1.35 | –
[7], 333.333 nM | 2.88 | –
[7], 1000 nM | 5.75 | –
[7], 3000 nM | 5.93 | –
[8], 4.11523 nM | – | 0.919
[8], 12.34567901 nM | – | 1.01
[8], 37.037 nM | – | 0.959
[8], 111.1111111 nM | – | 0.851
[8], 333.333 nM | – | 0.435
[8], 1000 nM | – | 0.295
[8], 3000 nM | – | 0.182
[9], 4.11523 nM | – | 0.827
[9], 12.34567901 nM | – | 0.774
[9], 37.037 nM | – | 0.902
[9], 111.1111111 nM | – | 0.731
[9], 333.333 nM | – | 0.662
[9], 1000 nM | – | 0.582
[9], 3000 nM | – | 0.566
[10], 4.11523 nM | – | 1.03
[10], 12.34567901 nM | – | 0.806
[10], 37.037 nM | – | 0.901
[10], 111.1111111 nM | – | 0.78
[10], 333.333 nM | – | 0.516
[10], 1000 nM | – | 0.473
[10], 3000 nM | – | 0.374
[11], 4.11523 nM | – | 0.881
[11], 12.34567901 nM | – | 0.762
[11], 37.037 nM | – | 0.621
[11], 111.1111111 nM | – | 0.419
[11], 333.333 nM | – | 0.436
[11], 1000 nM | – | 0.266
[11], 3000 nM | – | 0.364
[12], 4.11523 nM | – | 0.746
[12], 12.34567901 nM | – | 0.823
[12], 37.037 nM | – | 0.554
[12], 111.1111111 nM | – | 0.493
[12], 333.333 nM | – | 0.307
[12], 1000 nM | – | 0.283
[12], 3000 nM | – | 0.231
[13], 4.11523 nM | – | 0.83
[13], 12.34567901 nM | – | 0.966
[13], 37.037 nM | – | 0.848
[13], 111.1111111 nM | – | 0.873
[13], 333.333 nM | – | 0.668
[13], 1000 nM | – | 0.534
[13], 3000 nM | – | 0.557
[14], 4.11523 nM | – | 0.896
[14], 12.34567901 nM | – | 0.855
[14], 37.037 nM | – | 0.885
[14], 111.1111111 nM | – | 0.812
[14], 333.333 nM | – | 0.588
[14], 1000 nM | – | 0.47
[14], 3000 nM | – | 0.298

— the supplement of paper PMC13207355
